# Laboratory results: article PMC7022392, “Chemoenzymatic Synthesis of Enantiomeric, Bicyclic δ-Halo-γ-lactones with a Cyclohexane Ring, Their Biological Activity and Interaction with Biological Membranes” (Biomolecules, 2020)
# Like-named read-outs stand apart in the source and are kept apart here.
# Assays:
# [1] = test system: Proteus mirabilis ATCC 35659; test: Disc diffusion antimicrobial test; type: cell-based; details: includes 6 mm disc, 24 h at 37 °C, racemic compounds
# [2] = test system: Escherichia coli ATCC 25922; test: Disc diffusion antimicrobial test; type: cell-based; details: includes 6 mm disc, 24 h at 37 °C, racemic compounds
# Protocol: (§1) The antimicrobial activity of racemic halolactones were tested towards three bacterial strains classified as Gram-negative (Escherichia coli ATCC 25922, Pseudomonas aeruginosa ATCC 27853, Proteus mirabilis ATCC […]) and Gram-positive (Bacillus cereus ATCC 10876) and two fungal strains (Candida albicans ATCC 10231 and Aspergillus brasiliensis ATCC 16404). The microorganisms were supplied by Pasteur Institute of Algiers (Algeria).
# (§2) The tests were carried out using the disc diffusion method. Briefly, overnight microbial cultures were adjusted to 0.5 MacFarland turbidity standards and spread in Petri dishes containing Mueller–Hinton and Sabouraud media for bacteria and fungi, respectively. The paper discs (6 mm diameter) was sterilized and impregnated with lactone dissolved in DMSO. Then, the discs were placed on the inoculated agar. The negative controls were discs immersed in pure DMSO. The plates were incubated for 24 h at 37 °C (bacteria) and for 48 h at 25 °C (yeast) and 5–7 days for fungi. Then, the inhibition zone diameters were determined in millimeters (including disc diameter of 6 mm). The test was carried out in triplicates.
# [3] = test system: Bacillus cereus ATCC 10876; test: Disc diffusion antimicrobial test; type: cell-based; details: includes 6 mm disc, 24 h at 37 °C, racemic compounds
# Protocol: as §1, §2
# [4] = test system: CLB70 (canine B-cell chronic leukemia); test: Antiproliferative activity (formazan viability); type: cell-based; details: mean ± SD
# Protocol: (§3) The GL-1 (canine B-cell leukemia) was obtained from Yasuhito Fujino and Hajime Tsujimoto from the Department of Veterinary Internal Medicine University of Tokyo [27], the CLB70 (canine B-cell chronic leukemia) was described earlier by Pawlak et al.. The GL-1 cells were maintained in RPMI 1640 medium with 10% fetal bovine serum (FBS), 100 µg/mL streptomycin, 100 U/mL penicillin and 2 mM L-glutamine (Sigma-Aldrich, Stainheim, Germany). The CLB70 cell line was maintained in Advanced RPMI (Gibco) medium with 100 µg/mL streptomycin, 100 U/mL penicillin and 20% heat-inactivated FBS. Cells were cultured at 37 °C in the incubator with 95% humidified atmosphere and 5% CO2. The antiproliferative activity was tested according to the procedure described previously. The tested lactones were prepared within a concentration range of 6.25–50 µg/mL in the culture medium (DMSO concentration was less than 1% in each dilution). The activity curves used to calculate IC50 are presented in the (Supplementary information Figures S7–S18). The optical density of formed formazan in untreated control cells was assigned as 100%. Viability of test samples was calculated as: % Viability = (average OD for test group/average OD for control group) × 100. The results were determined from more than 3 independent experiments (four wells each) and presented as mean IC50 value ± SD.
# [5] = test system: GL-1 (canine B-cell leukemia); test: Antiproliferative activity (formazan viability); type: cell-based; details: GL-1 cell line, mean ± SD
# Protocol: as §3
# [6] = Canis lupus familiaris, CLB70, CLB70 cell line, read-out: IC50
# [7] = Canis lupus familiaris, B-cell, read-out: IC50
SMILES,"IC50 [4, 6] [µg/mL]","IC50 [5, 7] [µg/mL]",melting point [°C],diameter of inhibition zone [1] [mm],also measured
"CC(I)C12CCCCC1CC(=O)O2 (racemic) [rac-6, 1-(1′-Iodoethyl)-9-Oxabicyclo[4.3.0]nonan-8-one]",,,,11 ± 0.00,inhibition zone [2]: 7 ± 0.00 mm; inhibition zone [3]: 12 ± 0.00 mm
"CC(Br)C12CCCCC1CC(=O)O2 (racemic) [rac-7, 1-(1′-Bromoethyl)-9-Oxabicyclo[4.3.0]nonan-8-one]",,,,12 ± 0.35,inhibition zone [2]: 9 ± 0.00 mm; inhibition zone [3]: 8 ± 0.00 mm
"COc1cc([C@@H]2c3cc4c(cc3[C@@H](O[C@@H]3O[C@@H]5CO[C@@H](C)O[C@H]5[C@H](O)[C@H]3O)[C@H]3COC(=O)[C@H]23)OCO4)cc(OC)c1O [Etoposide, reference compound]",14.3 ± 2.83,4.4 ± 1.14,,,
"CC(Cl)C12CCCCC1CC(=O)O2 (centres unmarked) [compound 8, 1-(1′-Chloroethyl)-9-Oxabicyclo[4.3.0]nonan-8-one]",,,,12 ± 0.00,

# Further lines, with some results ahead:
"IC50 [4, 6] [µg/mL]","IC50 [5, 7] [µg/mL]",melting point [°C],SMILES,diameter of inhibition zone [1] [mm],also measured
19.6 ± 0.51,13.8 ± 1.08,104 to 107,"C[C@@H](I)[C@]12CCCC[C@H]1CC(=O)O2 [6a, (−)-(1S,6S,1′R)-1-(1′-Iodoethyl)-9-oxabicyclo[4.3.0]nonan-8-one]",,
19.93 ± 0.07,14.5 ± 2.38,,"C[C@H](I)[C@@]12CCCC[C@@H]1CC(=O)O2 [6b, (+)-(1R,6R,1′S)-1-(1′-Iodoethyl)-9-oxabicyclo[4.3.0]nonan-8-one]",,
19.4 ± 0.35,15.6 ± 0.79,44 to 48,"C[C@@H](Br)[C@]12CCCC[C@H]1CC(=O)O2 [7a, (−)-(1S,6S,1′R)-1-(1′-Bromoethyl)-9-oxabicyclo[4.3.0]nonan-8-one]",,
28.6 ± 4.89,14.9 ± 1.93,,"C[C@H](Br)[C@@]12CCCC[C@@H]1CC(=O)O2 [7b, (+)-(1R,6R,1′S)-1-(1′-Bromoethyl)-9-oxabicyclo[4.3.0]nonan-8-one]",,
23.9 ± 5.14,17.2 ± 3.62,37 to 40,"C[C@@H](Cl)[C@]12CCCC[C@H]1CC(=O)O2 [8a, (−)-(1S,6S,1′R)-1-(1′-Chloroethyl)-9-oxabicyclo[4.3.0]nonan-8-one]",,
11.4 ± 0.4,18.4 ± 1.46,,"C[C@H](Cl)[C@@]12CCCC[C@@H]1CC(=O)O2 [8b, (+)-(1R,6R,1′S)-1-(1′-Chloroethyl)-9-oxabicyclo[4.3.0]nonan-8-one]",,IC50 ([4]; CLB70 cell line): 18.43 ± 1.46 µg/mL; IC50 [5]: 11.40 ± 0.40 µg/mL
